Experiment [1] in a line: Cytotoxicity against human MKN45 cells after 72 hrs by MTT assay. Particulars: MKN-45, 72 h. For orientation: Tetrazolium assays rely on reduction of a dye to a coloured formazan, in cell work by metabolically active cells.
Another experiment relates to HT-29. Put plainly: Cytotoxicity against human HT-29 cells after 72 hrs by MTT assay. Particulars: HT-29, 72 h.
For a further experiment, the system named is A549. Put plainly: Cytotoxicity against human A549 cells after 72 hrs by MTT assay. The format is functional, cell-based. Particulars: A549, 72 h.
A further experiment deals with MDA-MB-231. Put plainly: Cytotoxicity against human MDA-MB-231 cells after 72 hrs by MTT assay. In kind it is functional, cell-based. Particulars: MDA-MB-231, 72 h.
Another experiment relates to PBL. Put plainly: Cytotoxicity against human PBL cells after 72 hrs by MTT assay. In kind it is cell-based.

Broadly, the IC50 is the concentration at which inhibition is half-maximal. A high value points to weaker potency.

As to `COc1ccc(/C=N/NC(=O)Nc2ccc(Oc3ccnc4cc(OCCCN5CCCCC5)c(OC)cc34)c(F)c2)c(OC)c1`, the results for the IC50 (in experiment [1]; in the experiment with HT-29; in the experiment on A549) were 1990 nM, 1600 nM and 1400 nM, respectively.

As for `COc1cc2c(Oc3ccc(/C=N/NC(=O)Nc4ccc(Br)cc4)cc3F)ccnc2cc1OCCCN1CCCCC1`, the results for the IC50 (in experiment [1]; in the experiment with HT-29; with MDA-MB-231) were 60 nM, 270 nM and 800 nM, respectively.

Turning to `COc1cc2c(Oc3ccc(NC(=O)N/N=C/c4ccc([N+](=O)[O-])cc4)cc3F)ccnc2cc1OCCCN1CCOCC1`, the IC50 came out at 750 nM in experiment [1], 710 nM in the experiment with HT-29 and 1700 nM in the experiment with MDA-MB-231.

Regarding `COc1ccc(/C=N/NC(=O)Nc2ccc(Oc3ccnc4cc(OCCCN5CCC(C)CC5)c(OC)cc34)c(F)c2)cc1`, the IC50 in experiment [1] came out at 470 nM; with HT-29 it was 610 nM; in the experiment with PBL it was 23000 nM; with A549, 430 nM; in the experiment with MDA-MB-231, 1000 nM.

Turning to `COc1cc2c(Oc3ccc(NC(=O)N/N=C/c4ccc(Cl)cc4Cl)cc3F)ccnc2cc1OCCCN1CCCCC1`, the IC50 in experiment [1] amounted to 460 nM; in the experiment on HT-29, 370 nM; in the experiment with MDA-MB-231 it was 750 nM.

As for `C=CCc1cccc(/C=N/NC(=O)CN2CCN(Cc3ccccc3)CC2)c1O` [PAC-1], the IC50 in experiment [1] was 820 nM; in the experiment on PBL it was 124000 nM.

As for `COc1cc2c(Oc3ccc(NC(=O)N/N=C/c4ccc(C(F)(F)F)cc4)cc3F)ccnc2cc1OCCCN1CCCC1`, the half-inhibitory concentration (IC50) was found to be 1300 nM in experiment [1], 810 nM with HT-29, 790 nM with A549 and 1800 nM in the experiment with MDA-MB-231.

In the case of `COc1cc2c(Oc3ccc(NC(=O)N/N=C/c4cc5ccccc5[nH]4)cc3F)ccnc2cc1OCCCN1CCCCC1`, the IC50 was determined as 830 nM in experiment [1], 820 nM in the experiment on HT-29, 780 nM with A549 and 980 nM with MDA-MB-231.

Regarding `COc1cc2c(Oc3ccc(NC(=O)N/N=C/c4ccc(C(F)(F)F)cc4)cc3F)ccnc2cc1OCCCN1CCCCC1`, the half-maximal inhibitory concentration (IC50) in experiment [1] came to 630 nM; in the experiment on HT-29 it was 660 nM; in the experiment with A549, 660 nM; in the experiment on MDA-MB-231, 1100 nM.

`COc1cc2c(Oc3ccc(/C=N/NC(=O)Nc4ccccc4)cc3F)ccnc2cc1OCCCN1CCCCC1`: the concentration for half-maximal inhibition (IC50) turned out to be 180 nM in experiment [1]; 190 nM with HT-29; 25500 nM in the experiment with PBL; 280 nM with A549; 1200 nM in the experiment with MDA-MB-231.

Take `COc1cc2c(Oc3ccc(NC(=O)N/N=C/c4ccc(F)cc4Cl)cc3F)ccnc2cc1OCCCN1CCC(C)CC1`: the IC50 in experiment [1] was found to be 530 nM; with HT-29 it was 440 nM; with PBL, 79500 nM; in the experiment on A549, 190 nM; in the experiment with MDA-MB-231, 1500 nM.

As to `COc1ccc(/C=N/NC(=O)Nc2ccc(Oc3ccnc4cc(OCCCN5CCCCC5)c(OC)cc34)c(F)c2)cc1`, the IC50 came out at 660 nM in experiment [1]; 590 nM in the experiment with HT-29; 126000 nM in the experiment with PBL; 540 nM in the experiment with A549; 840 nM in the experiment on MDA-MB-231.

In the case of `COc1cc2c(Oc3ccc(/C=N/NC(=O)Nc4ccc(F)c(F)c4)cc3F)ccnc2cc1OCCCN1CCCCC1`, the values for the IC50 (in experiment [1]; in the experiment with HT-29; in the experiment on MDA-MB-231) were 320 nM, 490 nM and 960 nM, respectively.

Regarding `COc1cc2c(Oc3ccc(NC(=O)N/N=C/c4ccc(N(C)C)cc4)cc3F)ccnc2cc1OCCCN1CCCCC1`, the values for the half-maximal inhibitory concentration (IC50) (in experiment [1]; in the experiment with HT-29; in the experiment with MDA-MB-231) were 870 nM, 1000 nM and 1400 nM, respectively.

On to `COc1cc2c(Oc3ccc(NC(=S)N/N=C/c4ccc(F)c(F)c4)cc3F)ccnc2cc1OCCCN1CCCCC1`, for which the IC50 in experiment [1] worked out at 740 nM; in the experiment with HT-29, 610 nM; in the experiment with MDA-MB-231, 1400 nM.

On to `COc1cc2c(Oc3ccc(NC(=O)N/N=C/c4ccncc4)cc3F)ccnc2cc1OCCCN1CCCCC1`, for which the IC50 in experiment [1] stood at 980 nM; with HT-29 it was 940 nM; in the experiment with A549, 840 nM; with MDA-MB-231, 1400 nM.

As for `COc1cc2c(Oc3ccc(NC(=O)N/N=C/c4cccs4)cc3F)ccnc2cc1OCCCN1CCCCC1`, the IC50 in experiment [1] worked out at 740 nM; in the experiment on HT-29, 770 nM; in the experiment with PBL, 68700 nM; in the experiment on A549, 790 nM; in the experiment with MDA-MB-231 it was 1260 nM.

Regarding `COc1cc2c(Oc3ccc(NC(=O)N/N=C/c4ccc(Cl)cc4Cl)cc3F)ccnc2cc1OCCCN1CCC(C)CC1`, the half-maximal inhibitory concentration (IC50) was 350 nM in experiment [1], 470 nM in the experiment with HT-29 and 910 nM with MDA-MB-231.

`COc1cc2c(Oc3ccc(NC(=S)N/N=C/c4ccc(F)cc4Cl)cc3F)ccnc2cc1OCCCN1CCCCC1`: the IC50 in experiment [1] stood at 820 nM; with HT-29, 420 nM; with PBL, 34100 nM; in the experiment on A549, 230 nM; in the experiment with MDA-MB-231 it was 1400 nM.

Turning to `C=CCc1cccc(/C=N/NC(=O)Nc2ccc(Oc3ccnc4cc(OCCCN5CCCCC5)c(OC)cc34)c(F)c2)c1OC`, the IC50 stood at 670 nM in experiment [1], 460 nM in the experiment on HT-29, 250 nM with A549 and 790 nM in the experiment with MDA-MB-231.

Take `COc1cc2c(Oc3ccc(NC(=O)N/N=C/c4ccc([N+](=O)[O-])cc4)cc3F)ccnc2cc1OCCCN1CCCC1`: the half-inhibitory concentration (IC50) is 470 nM in experiment [1], 310 nM with HT-29, 460 nM with A549 and 970 nM in the experiment with MDA-MB-231.

In the case of `COc1cc2c(Oc3ccc(NC(=O)N/N=C/c4ccc(C(F)(F)F)cc4)cc3F)ccnc2cc1OCCCN1CCC(C)CC1`, the concentration for half-maximal inhibition (IC50) in experiment [1] turned out to be 1000 nM; in the experiment with HT-29, 740 nM; with A549, 650 nM; with MDA-MB-231 it was 1300 nM.

On to `COc1cc2c(Oc3ccc(NC(=S)N/N=C/c4ccc(Cl)cc4)cc3F)ccnc2cc1OCCCN1CCCCC1`, for which the IC50 was 500 nM in experiment [1], 190 nM in the experiment on HT-29 and 1300 nM in the experiment with MDA-MB-231.

On to `COc1cc2c(Oc3ccc(NC(=O)N/N=C/c4ccc(OC(F)(F)F)cc4)cc3F)ccnc2cc1OCCCN1CCCCC1`, for which the concentration for half-maximal inhibition (IC50) was 630 nM in experiment [1], 510 nM with HT-29, 590 nM in the experiment with A549 and 820 nM in the experiment with MDA-MB-231.

For the compound `COc1ccc(/C=N/NC(=O)Nc2ccc(Oc3ccnc4cc(OCCCN5CCCC5)c(OC)cc34)c(F)c2)cc1`, the 50% inhibitory concentration (IC50) in experiment [1] is 750 nM; with HT-29, 690 nM; with PBL it was 26500 nM; in the experiment with A549, 680 nM; in the experiment with MDA-MB-231, 1300 nM.

In the case of `COc1ccc(/C=N/NC(=O)Nc2ccc(Oc3ccnc4cc(OCCCN5CCOCC5)c(OC)cc34)c(F)c2)cc1`, the IC50 in experiment [1] came out at 770 nM; in the experiment on HT-29 it was 900 nM; in the experiment with PBL, 17200 nM; in the experiment with MDA-MB-231 it was 1900 nM.

As for `COc1cc2c(Oc3ccc(NC(=O)N/N=C/c4ccc([N+](=O)[O-])cc4)cc3F)ccnc2cc1OCCCN1CCC(C)CC1`, the half-maximal inhibitory concentration (IC50) in experiment [1] turned out to be 420 nM; in the experiment with HT-29 it was 230 nM; in the experiment on A549, 380 nM; with MDA-MB-231, 870 nM.

Turning to `COc1cc2c(Oc3ccc(NC(=O)N/N=C/c4ccc(O)cc4)cc3F)ccnc2cc1OCCCN1CCCCC1`, the IC50 was determined as 850 nM in experiment [1], 470 nM in the experiment with HT-29, 780 nM with A549 and 790 nM in the experiment with MDA-MB-231.

The values are drawn from ChEMBL document CHEMBL3763046 (Bioorg Med Chem, 2016).
